Assay results as given in ChEMBL document CHEMBL1131864, “Effects of sesquiterpenes and triterpenes from the rhizome of Alisma orientale on nitric oxide production in lipopolysaccharide-activated macrophages: absolute stereostructures of alismaketones-B 23-acetate and -C 23-acetate” (Bioorg Med Chem Lett, 1999).

Legend:
Format in all cases: functional
Mus musculus [1] = species: Mus musculus; assay: Inhibition of nitric oxide production in LPS-activated mouse macrophages at a concentration of 10 uM
Mus musculus [2] = species: Mus musculus; assay: Inhibition of nitric oxide production in LPS-activated mouse macrophages at a concentration of 1 uM
Mus musculus [3] = species: Mus musculus; assay: Inhibition of nitric oxide production in LPS-activated mouse macrophages at a concentration of 3 uM
Mus musculus [4] = species: Mus musculus; assay: Inhibition of nitric oxide production in LPS-activated mouse macrophages at a concentration of 100 uM
Mus musculus [5] = species: Mus musculus; assay: Inhibition of nitric oxide production in LPS-activated mouse macrophages at a concentration of 30 uM
Mus musculus [6] = species: Mus musculus; assay: Concentration required for inhibition of nitric oxide production in LPS-activated mouse macrophages

| Structure (SMILES) | inhibition at 10 µM (Mus musculus [1]) [%] | inhibition at 1 µM (Mus musculus [2]) [%] | inhibition at 3 µM (Mus musculus [3]) [%] | inhibition at 100 µM (Mus musculus [4]) [%] | inhibition at 30 µM (Mus musculus [5]) [%] | IC50 (Mus musculus [6]) [µM] |
| --- | --- | --- | --- | --- | --- | --- |
| C[C@H](C[C@H](O)[C@H](O)C(C)(C)O)C1=C2C[C@H](O)C3[C@@]4(C)CCC(=O)C(C)(C)C4CC[C@]3(C)[C@@]2(C)CC1 (stereo not given in full) | 30 | 5.8 | 21.4 | 111 | 113 | > 10 |
| COC(=O)C(C)(C)C1CC[C@@]2(C)C3[C@H](CC4=C([C@H](C)C[C@H](OC(C)=O)[C@H]5OC5(C)C)CC[C@@]42C)OC(=O)C[C@@]13C (stereo not given in full) | 49.2 | -2.6 | 17.2 | 110 | 84.2 | 10 |
| CC(=O)O[C@@H](C[C@@H](C)C1=C2[C@H](O)[C@H](O)C3[C@@]4(C)CCC(=O)C(C)(C)C4CC[C@]3(C)[C@@]2(C)CC1)[C@H]1OC1(C)C (stereo not given in full) | 32.3 | 5.9 | 4 | 116 | 117 | > 10 |
| C[C@H](C[C@H](O)[C@@H](O)C(C)(C)O)C1=C2C[C@H](O)C3[C@@]4(C)CCC(=O)C(C)(C)C4CC[C@]3(C)[C@@]2(C)CC1 (stereo not given in full) | 26.2 | 0.2 | 21.4 | 114 | 84.2 | > 10 |
| CC(=O)O[C@H]1C[C@@H](C)C2=C3C[C@H](O)C4[C@@]5(C)CCC(=O)C(C)(C)C5CC[C@]4(C)[C@@]3(C)C[C@@H]2O[C@H]1C(C)(C)O (stereo not given in full) | 13.5 | -4.5 | 7.5 | 90.8 | 42.9 | 36 |
| C=C(C)[C@H](O)[C@@H](O)C[C@@H](C)C1=C2C[C@H](O)C3[C@@]4(C)CCC(=O)C(C)(C)C4CC[C@]3(C)[C@@]2(C)CC1 (stereo not given in full) | 29.7 | 8.8 | 21.4 | 106 | 104 | > 10 |
| CC(C)C1=CC2C(CC[C@]2(C)O)/C(=C/S(=O)(=O)O)CC1 (stereo not given in full) | 11 | 8.4 | 14.3 | 27.1 | 21.5 | > 100 |
| C=C1CCC(C(C)C)=CC2C1CC[C@]2(C)O (stereo not given in full) | 27 | 3.4 | 17.6 | 97.4 | 57.5 | 23 |
| C[C@@H]1CC([C@H]2OC2(C)C)OC2C[C@@]3(C)C(=C21)CCC1[C@@]2(C)CCC(=O)C(C)(C)C2CC[C@@]13C (stereo not given in full) | 31.2 | -5.1 | 21.7 | 100 | 84.2 | 12 |
| CC(C)C1=CC2C(CC[C@]2(C)O)[C@@](O)(CS(=O)(=O)O)CC1 (stereo not given in full) | 4.9 | 2.8 | -2.2 | 21.3 | 16.3 | > 100 |
| C[C@H](CC(=O)CC(C)(C)O)C1=C2CCC3[C@@]4(C)CCC(=O)C(C)(C)C4CC[C@]3(C)[C@@]2(C)CC1=O (stereo not given in full) | 26.7 | -5.1 | 17.2 | 97.2 | 71.3 | 17 |
| CC(C)C1=CC2C(CC[C@]2(C)O)[C@](C)(O)CC1 (stereo not given in full) | 0.4 | -2.5 | -1.8 | 33.1 | 12 | > 100 |
| CC(=O)O[C@@H](C[C@@H](C)C1=C2C[C@H](O)C3[C@@]4(C)CCC(=O)C(C)(C)C4CC[C@]3(C)[C@@]2(C)CC1=O)[C@H]1OC1(C)C (stereo not given in full) | 21.1 | 2.9 | 13.3 | 67.3 | 43.8 | 42 |
| C=C1CC[C@@]2(C(C)C)O[C@H]2C2C1CC[C@]2(C)O (stereo not given in full) | 14.1 | 0.9 | 5 | 74.9 | 29.2 | 53 |
| CC(=O)O[C@@H](C[C@@H](C)C1=C2C[C@H](O)C3[C@@]4(C)CCC(=O)C(C)(C)C4CC[C@]3(C)[C@@]2(C)CC1)[C@H](O)C(C)(C)O (stereo not given in full) | 32.1 | 9.2 | 10 | 104 | 81 | 16 |
| CC(C)[C@]12CC[C@](C)(O1)C1CC[C@](C)(S(=O)(=O)O)C1[C@@H]2O (stereo not given in full) | 4.3 | 3.3 | -2.1 | 24.7 | 12.6 | > 100 |
| CC(=O)O[C@@H](C[C@@H](C)C1=C2C=CC3[C@@]4(C)CCC(=O)C(C)(C)C4CC[C@]3(C)[C@@]2(C)CC1=O)[C@H]1OC1(C)C (stereo not given in full) | 54.8 | 17.8 | 27.9 | 104 | 86.5 | 8.4 |
| CC(=O)O[C@@H](C[C@@H](C)[C@]12O[C@H]1C[C@@]1(C)C2=CC(=O)C2[C@@]3(C)CCC(=O)C(C)(C)C3CC[C@@]21C)[C@H]1OC1(C)C (stereo not given in full) | 31.1 | 9.9 | 11.9 | 114 | 83.6 | > 10 |
| CC(=O)O[C@@H](C[C@@H](C)C(=O)CC[C@@]1(C)C(=O)C=CC2[C@@]3(C)CCC(=O)C(C)(C)C3CC[C@@]21C)[C@H]1OC1(C)C (stereo not given in full) | 22.7 | 2.9 | 10.2 | 114 | 61 | 23 |
| CC(=O)O[C@@H](C[C@@H](C)C1=C2C[C@H](O)C3[C@@]4(C)CCC(=O)C(C)(C)C4CC[C@]3(C)[C@@]2(C)CC1)[C@H]1OC1(C)C (stereo not given in full) | 29.7 | 0 | 13.4 | 105 | 106 | > 10 |
| CC(C)C1=CC2C(CC[C@]2(C)O)[C@@](O)(CO)CC1 (stereo not given in full) | 4.8 | -4.3 | -3.1 | 64.1 | 21.2 | 68 |
| CC(=O)O[C@@H](C[C@@H](C)C1=C2[C@H](O)[C@H](O)C3[C@@]4(C)CCC(=O)C(C)(C)C4CC[C@]3(C)[C@@]2(C)CC1=O)[C@H]1OC1(C)C (stereo not given in full) | 50.8 | 19 | 29.7 | 104 | 86.3 | 9.3 |
| C[C@@H]1CC([C@@H](O)C(C)(C)O)OC2C[C@@]3(C)C(=C21)C[C@H](O)C1[C@@]2(C)CCC(=O)C(C)(C)C2CC[C@@]13C (stereo not given in full) | 40.3 | 7.5 | 14.8 | 99.5 | 69.6 | 15 |
| CC(=O)O[C@@H](C[C@@H](C)C1=C2C[C@@H]3OC(=O)C[C@@]4(C)C(C(C)(C)C(=O)O)CC[C@@](C)(C34)[C@@]2(C)CC1)[C@H]1OC1(C)C (stereo not given in full) | 38.2 | 10.3 | 23.2 | 90.7 | 65.6 | 16 |
| C[C@H](C[C@H](O)[C@H]1OC1(C)C)C1=C2C[C@H](O)C3[C@@]4(C)CCC(=O)C(C)(C)C4CC[C@]3(C)[C@@]2(C)CC1 (stereo not given in full) | 36.3 | 13.2 | 21.3 | 108 | 109 | > 10 |
| CC(=O)O[C@H]([C@@H](O)C[C@@H](C)C1=C2C[C@H](O)C3[C@@]4(C)CCC(=O)C(C)(C)C4CC[C@]3(C)[C@@]2(C)CC1)C(C)(C)O (stereo not given in full) | 13.4 | -2.9 | 6.4 | 112 | 71 | > 10 |
| O=C(/C=C/c1ccc(O)c(O)c1)OCCc1ccccc1 [CAFFEIC ACID PHENETHYL ESTER] | 97.5 | -1.9 | 25.5 | 104 | 104 | 4 |
| C=C1/C=C/[C@H](C(C)C)CC/C(C)=C/CC1 [GERMACRENE D] | 16.7 | 7.5 | 1.6 | 68.5 | 29 | 58 |
| N=C(N)NCCSSCCNC(=N)N [GUANIDINOETHYLDISULFIDE] | 102 | 39.1 | 76.3 | 105 | 105 | 1.4 |
| CNC(=N)NCCC[C@H](N)C(=O)O [TILARGININE] | 17.7 | 4.4 | 2 | 79.2 | 52.3 | 28 |
